A short description of data set [1]: method code SF-GLC, from DOI: 10.1080/03086648508073361.
Data set [2] in a line: method code SF, from DOI: 10.1034/j.1399-3011.2003.00037.x, PMID: 12492901. The conditions noted are these: pH 2.0.
Data set [3] in a line: method code SF, from Dai, J-Y.; Han, S.; Wang, L. (2000). Prediction of partition properties of substituted benzaldehydes using different structural parameters. Zhongguo Huanjing Kexue (China Environmental Science), ….
The nature of data set [4]: method code SF-AS, from DOI: 10.1002/1521-3838(200111)20:4<291::aid-qsar291>3.0.co;2-q.
Data set [5] is described as follows: method code SF-AS, from DOI: 10.1248/cpb.35.377.
Data set [6] in a line: method code SF-HPLC, from DOI: 10.1016/0378-5173(82)90005-9. The conditions noted are these: pH 3.0.
The nature of data set [7]: method code SF, from DOI: 10.1111/j.2042-7158.1971.tb08772.x, PMID: 4401532. The conditions noted are these: pH 7.2.
Data set [8] in a line: method code SF-RC, from Audran, M.; Chanal, J.; Berge, G.; Marignan, R. (1983). Binding-structure correlation of bovine serum albumin in a series of cresotinamides. International Journal of Pharmaceutics, 15(3)273-284. The following applies: pH 1.0.
Data set [9] is described as follows: method code SF, from DOI: 10.1016/0360-3016(86)90226-9, PMID: 3744928. The conditions noted are these: pH 7.4.
Data set [10] in a line: method code SF-HPLC, from DOI: 10.1016/s0223-5234(02)01360-0, PMID: 12008054. The following applies: pH 7.4.
Data set [11] in a line: method code SF-AS, from DOI: 10.1111/j.1440-1681.1976.tb00621.x, PMID: 10116.
Data set [12] is described as follows: method code SF-GLC, from Hermens, J., & De Bruijn, J. (1987). A QSAR study for fish toxicity data of organophosphorus compounds. QSAR in Drug Design and Toxicology, 10, 343-345.
Data set [13] is described as follows: method code SF-HPLC, from DOI: 10.1016/0378-5173(85)90010-9. The conditions noted are these: pH 4.0.
Data set [14] can be described thus: from Dutta, H.; Mehta, N.; SenGupta, M.; Pal, D.; Sengupta, C.; De, A. (1988). Dioxanide furoate: studies on its interaction with blood phospholipid in relation to partition coefficients of related drugs. ….
Experiment in data set [15]: not given
The source holds these as a separate data set.

Experiment in data set [16]: not given
The source holds these as a separate data set.

The nature of data set [17]: method code SF-AS, from DOI: 10.1016/0006-2952(93)90433-w, PMID: 8494536. The following applies: pH 7.4.
Data set [18] in a line: method code SF, from DOI: 10.1021/jm00378a018, PMID: 6389865. The conditions noted are these: pH 7.0.
Data set [19] can be described thus: from Bazaco, J.; Coca, C. (1989). Relation between the partition coefficient (Log Pow) and capacity factor (Log k') derived from reversed-phase HPLC of a series of benzaldehyde derivatives. Ciencia e ….
Data set [20] in a line: method code G-HPLC, from DOI: 10.6028/nbs.ir.81-2406.
Experiment in data set [21]: not given
This is another data set of the same source.

Data set [22] in a line: method code SF-AS, from DOI: 10.1021/jm00254a011, PMID: 4845376.
Experiment in data set [23]: not given
This is another data set of the same source.

A short description of data set [24]: method code SF-GLC, from DOI: 10.1021/je00020a050.
Data set [25] in a line: method code SF-AS, from DOI: 10.1021/j150653a049.
The nature of data set [26]: method code SF, from DOI: 10.1016/0360-3016(92)90876-j, PMID: 1735696. The conditions noted are these: pH 7.4.

In the case of `CCN(CC)P(=O)(N(C)C)N(C)C`, the logP in data set [1] is 0.66.

In turn, `CC(=O)N[C@@H](Cc1c[nH]c2ccccc12)C(=O)O` showed a logD in data set [2] of 0.57.

Take `O=Cc1ccc(Br)cc1`: in data set [3], the logP was 2.75.

Take `S=c1[nH]nc(-c2ccc(Br)cc2)o1`: the logP in data set [4] is 3.93.

In data set [5], `OCc1ccccc1Cl` showed a lipophilicity (logP) of 1.77.

As to `O=C1NC(=O)C2(CCC2)C(=O)N1`, the logD in data set [6] is -0.27.

In turn, `CC(=O)Nc1ccc(Cl)cc1` returned a log distribution coefficient (logD) in [7] of 1.87.

In data set [8], `Cc1cc(Br)cc(C(=O)NC(C)C)c1O` showed a logD of 4.19.

Regarding `O=[N+]([O-])c1ncn(CC(O)CN2CC2)n1` (configuration not stated), the logD in data set [9] was -0.72.

In data set [5], `Nc1ccccc1C(=O)O` had a log partition coefficient (logP) of 1.13.

`NC(N)=N/N=C/c1c(Cl)cccc1Cl` yielded a logD in [10] of 1.4.

The compound `O=C(O)c1cc([N+](=O)[O-])cc([N+](=O)[O-])c1` yielded a logD in data set [2] of 1.75.

`CC(C)C(Br)C(=O)NC(N)=O` (configuration not stated) gave a logP in data set [11] of 1.14.

With `COP(=S)(OC)Oc1ccccc1`, the logP in data set [12] amounted to 2.97.

Regarding `O=C(Nc1ccccc1)n1cc(F)c(=O)[nH]c1=O`, the logD in data set [13] was 1.5.

`COc1ccc(-c2n[nH]c(=S)o2)cc1` displayed a lipophilicity (logP) in data set [4] of 3.

Turning to `CCC(Br)(CC)C(=O)NC(N)=O`, in data set [11], the logP turned out to be 1.54.

For `COP(=S)(OC)Oc1cc(Cl)c(I)cc1Cl`, the logP in data set [12] came out at 4.61.

On to `CN(C(=O)C(Cl)Cl)c1ccc(OC(=O)c2ccccc2)cc1`, for which the logP in [14] worked out at 2.56.

For `CCN(CC)P(=O)(N(CC)CC)N1CCCC1`, the logP in [1] turned out to be 2.39.

The compound `CC(=O)c1ccc([N+](=O)[O-])cc1` yielded a logP of 1.61.

Turning to `O=C(O)c1ccc(I)cc1`, the log partition coefficient (logP) in data set [15] stood at 3.13.

In the case of `CN(C(=O)C(Cl)Cl)c1ccc(OC(=O)c2ccco2)cc1`, the logP in data set [14] was 2.24.

Consider `CN(C)P(=O)(N(C)C)N(C)C`, for which the logP in [1] was 0.09.

The compound `CCNC(=O)c1cc(Br)cc(C)c1O` returned a logD in [8] of 3.61.

For `CCCCNC(=O)n1cc(F)c(=O)[nH]c1=O`, in [13], the logD is 1.44.

Regarding `CC(C)C(Cl)C(=O)NC(N)=O` (configuration not stated), the logP in data set [11] was 1.

Regarding `O=C1NC(=O)C2(CCCCCC2)C(=O)N1`, the logD in data set [6] is 1.36.

Consider `CCCCNC(=O)Cn1cnc([N+](=O)[O-])n1`, for which the pH-dependent lipophilicity (logD) in data set [9] is 0.89.

As to `O=C(Nc1ccc(O)cc1)C(Cl)Cl`, the log partition coefficient (logP) in [14] came out at 1.6.

In [16], `CC(C)(C)C1CCC(O)CC1` (configuration not stated) registered a logP of 3.09.

Turning to `OCc1c(Cl)cccc1Cl`, the log partition coefficient (logP) in [5] came out at 2.02.

Turning to `NS(=O)(=O)c1cccc2ccccc12`, the logD in data set [17] came to 1.55.

`CC(C(=O)O)c1ccc(C(=O)c2cccs2)cc1` (configuration not stated) yielded a logP in data set [15] of 2.83.

As for `CC(=O)Nc1nc(NCC(O)CO)c(Cl)nc1[N+](=O)[O-]` (configuration not stated), the pH-dependent lipophilicity (logD) in data set [18] amounted to 0.

In data set [19], `CCOc1cc(C=O)ccc1O` gave a logP of 1.58.

`Fc1ccc(CCl)cc1` yielded a logP in data set [20] of 2.73.

Take `CC(C)Oc1ccc(C=O)cc1`: the logP in data set [3] is 2.3.

Regarding `CCCCCCCCCCCCN1CC(C(=O)O)CC1=O` (configuration not stated), in [21], the logP was found to be 2.6.

Take `CCCCC(O)CCC` (configuration not stated): in data set [16], the lipophilicity (logP) amounted to 2.68.

`Cc1c(C)c(C)c(C)c(C)c1C` showed a logP in [20] of 4.61.

Compound `O=C(O)CNc1ccc([N+](=O)[O-])cc1[N+](=O)[O-]` displayed a logD in data set [2] of 1.56.

In data set [22], `Nc1nc(C=Cc2ccc([N+](=O)[O-])o2)no1` had a logP of 1.3.

For the compound `Cc1cc(C)c(O)c(C)c1`, the logP in data set [20] was 2.73.

As for `CC(=O)Nc1nc(N2CCN(C)CC2)c(Cl)nc1[N+](=O)[O-]`, the logD in data set [18] is 0.5.

Consider `Nc1nc(NCC(O)CO)c(Cl)nc1[N+](=O)[O-]` (configuration not stated), for which the logD in data set [18] is -0.22.

Regarding `CC(=O)N(C)c1ccc(O)cc1`, the pH-dependent lipophilicity (logD) in data set [7] is 0.61.

`CCCCC(C)O` (configuration not stated) yielded a logP in data set [16] of 1.76.

Take `O=C(O)Cc1ccc(Oc2cccc(Br)c2)cc1`: in data set [23], the logP is 4.1.

The compound `O=C(O)Cc1cc(Cl)c(Cl)cc1Cl` displayed a logP in data set [23] of 3.6.

In data set [24], `COc1ccc(Cl)c(Cl)c1Cl` registered a logP of 4.03.

In turn, `COP(=S)(OC)Oc1ccc(SC)cc1` had a log partition coefficient (logP) in data set [12] of 3.64.

In turn, `Cc1cc(Br)cc(C(N)=O)c1O` had a logD in data set [8] of 2.76.

As for `OCc1cc(Cl)cc(Cl)c1O`, the logP in data set [25] turned out to be 2.3.

In [7], `COc1ccc(N(C)C(C)=O)cc1` yielded a logD of 0.72.

Take `CCc1cc(CC)c(OC)c(C(=O)O)c1OC`: the logP in data set [15] amounted to 2.98.

Compound `CC(C)NC(=O)C=Cc1ncc([N+](=O)[O-])s1` showed a logP in [22] of 1.76.

Compound `Nc1ccc(-c2n[nH]c(=S)o2)cc1` had a logP in data set [4] of 2.03.

The compound `O=C1NC(=O)C2(CCCCCCC2)C(=O)N1` showed a logD in data set [6] of 1.79.

In the case of `O=[N+]([O-])c1ccc(N2CCNC2=S)o1`, the log partition coefficient (logP) in data set [22] was 0.98.

`COc1cc(Cl)c(Cl)c(Cl)c1OC` yielded a logP in data set [24] of 4.01.

`CCCCCCN1CC(C(=O)OC)CC1=O` (configuration not stated) gave a logP in data set [21] of 2.3.

In data set [23], `O=C(O)Cc1ccc(F)cc1` came in with a logP of 1.6.

`O=[N+]([O-])c1ccc(Oc2ccccc2)cc1`: the logP stood at 3.79.

In [17], `CS(=O)(=O)c1ccccc1` came in with a logD of 0.55.

In turn, `CN(C)C(=O)n1cc(F)c(=O)[nH]c1=O` had a logD in data set [13] of -0.37.

As for `c1ccc(N(c2ccccc2)c2ccccc2)cc1`, the logP was determined as 5.22.

For `NC(=O)c1cccc2ccccc12`, the logD in data set [17] stood at 1.88.

Consider `O=C(Cn1cnc([N+](=O)[O-])n1)N1CCOCC1`, for which the logD in data set [9] is -0.96.

The compound `OCc1ccccc1O` showed a logP in [25] of 0.56.

Compound `O=Cc1ccc(F)cc1` yielded a logP in data set [19] of 1.54.

Consider `COC(=O)C1CC(=O)N(C)C1` (configuration not stated), for which, in [21], the logP was -0.74.

Compound `COc1c(Cl)c(Cl)c(Cl)c(Cl)c1OC` gave a logP in data set [24] of 4.86.

`CCOc1ccc(C=O)cc1`: the logP in data set [3] is 2.09.

In data set [19], `COc1ccccc1C=O` had a logP of 1.72.

In turn, `CN(O)C(=O)Cn1ccnc1[N+](=O)[O-]` gave a pH-dependent lipophilicity (logD) in [26] of -0.74.

Compound `OCc1cc(Cl)ccc1O` had a logP in data set [25] of 1.44.

(Values after the SangsterLogP compilation.)
